The text below walks through data of patent US11325884B2, “Ketone inhibitors of lysine gingipain” (CORTEXYME, INC., priority 2016, dated 2022).

A short description of data set [1]: Oral pharmacokinetics in CD-1 mice. Type of data set: in vivo. The settings on record: male CD-1 mice, p.o. 10 mg/kg; for oral availability / plasma concentrations: as compared to reference compound 73.
The subject of another data set is P. gingivalis W83. In words: Experimental periodontitis / P. gingivalis infection mouse model. Type of data set: in vivo, BALB/C female mice. The settings on record: for alveolar bone loss: week 5-10, vs vehicle; for reduction in P. gingivalis DNA copy number (RgpB gene) in brain tissue: between week 5 and 10. From the text:
P. gingivalis applied over several weeks directly to the gingiva of mice has been used as a model for periodontitis. Alveolar bone resorption, a hallmark of periodontitis progression, is typically observed when this model employed. More recently, use of the model has also led to the discovery of a significant amount P. gingivalis in the brain, which accumulates concomitantly with oral colonization and which subsequently leads to detrimental effects such as inflammation and loss of hippocampal neurons.
At the beginning of the study, eight week old BALB/C female mice received antibiotic in drinking water (sulfamethoxazolum 0.87 mg/mL, trimethoprimum 0.17 mg/mL) for 10 days to reduce microbiome protection from experiment infection. Experimental periodontitis was induced by ligature placement followed by multiple exposures to P. gingivalis. During the ligature procedure mice were anesthetized with an intraperitoneal injection of ketamine (200 mg/kg) and xylazine (10 mg/kg), and eyes were lubricated with ointment (Puralube Vet; Pharmaderm, Melville, N.Y.). Next, a 5-0 silk ligature (Roboz Surgical Instrument Co.) was tied around the upper maxillary left and right second molar. Sutures were applied and tied gently to prevent damage to the periodontal tissue.
Mice (n=8-10/arm) were infected for 6 weeks every other day. For infection, 100 μL of bacteria solution were applied topically to the buccal surface of the maxillae. For preparation of the bacteria, P. gingivalis W83 (ATCC, Rockville, Md.) was streaked on Tryptic Soy Broth (TSB) agar plates (5% sheep blood, supplemented with 0.5 mg/mL L-cysteine, 5 μg/mL hemin, and 0.5 μg/mL vitamin K) and grown under anaerobic conditions at 37° C. for 5-7 days. Samples were then inoculated in TSB with hemin, vitamin K and L-cysteine (TSB-HKC) until mid-log phase (OD600=0.5-0.7). Bacteria were washed in PBS and prepared at final concentration of 1×10^10 cells/mL in PBS+2% methylcellulose (CMC).
Vehicle-treated animals received PBS only. At 5 weeks, a subgroup of animals (n=16) were euthanized to gather baseline measurements before the start of treatment. After 10 weeks, mice were euthanized and the brain, serum, and maxillary tissues were harvested and frozen in liquid nitrogen.
Bone loss in the maxillae was measured ex vivo blinded using OsiriX MD software (PixmeoSARL, Bernex, Switzerland). Point of measurements were obtained using 3D Multi Planar Reconstruction (MPR) view where the maxillae were sliced straight along the superficial roots of second molar and the posterior root of first molar, with a tangent of the anterior root of the first molar. The distance between the cementoenamel junction (CEJ) and the alveolar bone crest (ABC) was measured from the CEJ to a reference line on the ABC which was placed perpendicular to the superficial root one each side of the second molar. […] (ANOVA: F (5, 24)=15.71, p<0.0001; t-test with Bonferroni correction: **p<0.005, ***p<0.001).
DNA was extracted from brain tissue using the DNeasyBLOOD & TISSUE KIT (Qiagen, Germany) according to manufacturer's protocol. Taqman qPCR was performed with Kapa Probe fast qPCR Mix (Rox Low) on a Bio-Rad CFX96 Real-Time System C1000 Touch ThermalCycler with forward and reverse primers, and a detection probe. The primers were based on a single copy of P. gingivalis arginine-specific cysteine-proteinase gene. Duplicate samples were assayed in a total volume of 10 μL, containing 100 ng of template brain genomic DNA solution, TaqMan Universal PCR Master Mix (2×) (Kapa Biosystems, USA), and the specific set of primers (final concentration 5 μM) and probe (final concentration 4 μM) (GenoMed, Poland), corresponding to 562.5 nM for the forward and reverse primers and 100 nM for the probe primer. After an initial incubation step of 2 min at 50° C. and denaturation for 95° C. for 20 sec, 40 PCR cycles (95° C. for 20 s, 60° C. for 30 sec) were performed. […]

Another data set has as its system P. gingivalis infection. In words: Related studies: brain abeta42 and neuroinflammation. Type of data set: in vivo. From the text:
By inhibiting Kgp, the compounds disclosed herein can treat P. gingivalis infection itself, as well as the detrimental effects of neurological disease and other infection-associated conditions.

For data set [2], the target named is T1, Kgp (Porphyromonas gingivalis (Bacteroides gingivalis), UniProt Q51817). In words: Detection of Kgp with Cy5 activity-based probe (SDS-PAGE, Cy5 visualization). Format: binding. The note with it: 100 nM preincubation, P. gingivalis W83. As for the experimental part: It has a warhead that binds to the Kgp active site, a peptide-based core, and a Cy5 fluorophore for detection. Labeled target proteins can be visualized by biochemical separation of a sample with fractionation by 2-D gel electrophoresis and detection of fluorescent signals from Cy5 at the appropriate excitation and emission wavelength. Incubation of a fixed concentration of the probe following binding of Kgp to a test compound (e.g., a candidate Kgp inhibitor) results in binding of the activity probe to Kgp active sites not already bound by the test compound.
Preparation of P. gingivalis lysate. 10^8 bacteria were collected and centrifuged at 5000 g for 10 min at 4° C., and the supernatant was discarded. The bacterial cell pellet was lysed with 1 mL of B-Per lysis buffer (Thermo Fischer) on ice for 10 min, then centrifuged for 10 min at 14000 g, 4° C. Supernatant-containing protein lysate was collected. Biological samples were lysed with B-Per lysis buffer for 10 min at 4° C.
Cy5 direct labeling of Kgp. Biological samples, P. gingivalis lysate or purified Kgp were incubated with quenchable Cy5 probe compound 71 (1 μM) for 1 h at 37° C. with shaking. […]

Data set [3] addresses T1, Kgp. Nature of the data set: Activity probe labeling of Kgp in P. gingivalis-infected Jurkat cells. Type of data set: cell-based. From the text:
The identity of this labeled protein in P. gingivalis-infected cells was confirmed to be Kgp by Western blot.

A further data set concerns the target lysine gingipain (Kgp) (Porphyromonas gingivalis (strain ATCC 33277 / DSM 20709 / CIP 103683 / JCM 12257 / NCTC 11834 / 2561), UniProt B2RLK2). Nature of the data set: Inhibition of lysine gingipain, fluorogenic assay (Z-His-Glu-Lys-MCA). Format: biochemical. The settings on record: as compared to reference compound 73. As for the experimental part:
The specific assay conditions were as follows. Buffer: pH=7.5, 100 mM Tris-HCl, 75 mM NaCl, 2.5 mM CaCl2, 10 mM cysteine, 1% DMSO after all additions. Protein: 0.1 nM Kgp, isolated from culture of Porphyromonas gingivalis, as described by Pike et al. (J. Biol. Chem. 1994, 269(1), 406), and Potempa and Nguyen (Current Protocols in Protein Science. 2007, 21.20.1-21.20.27). Fluorogenic substrate: 10 μM Z-His-Glu-Lys-MCA. Time=90 minutes. Temperature=37° C.
Further assays to measure the inhibitory activity of compounds of the present invention against Kgp and cathepsins B, H, K, L, and S were conducted as described in Example 66. The capacities of the compounds to inhibit the activity of cathepsins F, V, and Z were also measured.

For data set [4] the following is noted: in vivo, po; cited from earlier work.

Take `NCCCC[C@H](NC(=O)C1CCCC1)C(=O)COc1c(F)ccc(F)c1F` [Compound 1, (S)—N-(7-amino-2-oxo-1-(2,3,6-trifluorophenoxy)heptan-3-yl)cyclopentanecarboxamide]: in data set [1], the oral availability entry was “improved”. The plasma concentrations result in data set [1] is on record as “increased”. For the same compound, the alveolar bone loss entry was “trended to improvement but did not result in significant improvement” with P. gingivalis W83 (3 mg/kg orally b.i.d.), “improved” in the data set on P. gingivalis W83 (10 mg/kg orally b.i.d.) and “improved” with P. gingivalis W83 (30 mg/kg orally b.i.d.). Moreover, the “reduction in P. gingivalis DNA copy number (RgpB gene) in brain tissue” value in the data set on P. gingivalis W83 (3 mg/kg) is 50%; with P. gingivalis W83 (10 mg/kg), 50%; in the data set with P. gingivalis W83 (30 mg/kg) it was 80%. For the same compound, the “GAD67 positive interneurons in the dentate gyrus” value in the data set with P. gingivalis W83 (10 weeks, infected untreated mice lost 25%) was “at the same level as the GAD67^+ cells in the mock-infected mice”. For the same compound, in the data set on P. gingivalis infection, the “induction of brain abeta42” value is on record as “reduce”. Besides, the neuroinflammation result in the data set on P. gingivalis infection was “reduce”. Moreover, at Kgp [2], the “competition for Kgp active site binding with probe compound 71” value is “competes for active site binding”.

Consider `CC1=CC(C)=[N+]2C1=Cc1ccc(CCC(=O)NCc3cn(-c4cccc(C(=O)NC(CCCCN)C(=O)COc5c(F)cccc5F)c4)nn3)n1[B-]2(F)F` (stereo not shown) [Compound 15a], for which the “binding to purified Kgp and to Kgp in infected cells” value on Kgp [3] (FIG. 6A) is “irreversibly binds”.

For the compound `COC(C)(C)C(=O)N[C@@H](CCCCN)C(=O)COC(C(F)(F)F)C(F)(F)F` [Compound 69, (S)—N-(7-amino-1-((1,1,1,3,3,3-hexafluoropropan-2-yl)oxy)-2-oxoheptan-3-yl)-2-methoxy-2-methylpropanamide], on lysine gingipain (Kgp), the “selectivity for Kgp over endogenous cathepsins” value is listed as “far more selective”. In addition, in data set [1], the “concentrations in the brain and cerebrospinal fluid (CSF)” value is recorded as “increased”; the oral availability entry is recorded as “improved”; the plasma concentrations result is “increased”.

In the case of `C[N+]1=C(/C=C/C=C/C=C2\N(CCCCCC(=O)NCc3cn(-c4cccc(C(=O)N[C@@H](CCCCN)C(=O)COc5c(F)cccc5F)c4)nn3)c3ccc(S(=O)(=O)O)cc3C2(C)C)C(C)(C)c2cc(S(=O)(=O)O)ccc21` [Compound 70], the “effect of preincubation on binding of probe 15a to Kgp” value at Kgp [3] (infected Jurkat cells, preincubation 1 hour) is reported as “blocked the binding”.

Regarding `CN(NC(=O)CC[C@H](NC(=O)OCc1ccccc1)C(=O)N[C@@H](CCCCN)C(=O)C(=O)NCc1ccccc1)c1ccccc1` [Kyt-36], in data set [4], the half-life entry is “increases”.
